Numbered stars: 1 amine (or outer) side, 2 acyl side, 3 side chain; on linkers, the order of the positions; unused ones are H or OH. Bridge positions count the residues as written; N and C are the ends. Square brackets hold non-standard residues; d marks the D form. Peptide text beside a SMILES is read from it. * marks the point of attachment. X30 = CCOc1cccc(-c2ccc(C[C@H](N[*:1])C(=O)[*:2])cc2)c1; Phe(4-COOH) = N[C@@H](Cc1ccc(C(=O)O)cc1)C(=O)O; Bip = N[C@@H](Cc1ccc(-c2ccccc2)cc1)C(=O)O; Phe(3-Me) = Cc1cccc(C[C@H](N)C(=O)O)c1; Phe(2-F) = N[C@@H](Cc1ccccc1F)C(=O)O; Val(3-OH) = CC(C)(O)[C@H](N)C(=O)O; 2Pal = N[C@@H](Cc1ccccn1)C(=O)O; 3Pal = N[C@@H](Cc1cccnc1)C(=O)O; Cha = N[C@@H](CC1CCCCC1)C(=O)O; Cit = NC(=O)NCCC[C@H](N)C(=O)O; Pip = O=C(O)[C@@H]1CCCCN1; Carboxymethyl = O=C(O)C*; NMeA = CN[C@@H](C)C(=O)O; Orn = NCCC[C@H](N)C(=O)O; Pra = C#CC[C@H](N)C(=O)O; Dab = NCC[C@H](N)C(=O)O; Dap = NC[C@H](N)C(=O)O

This experiment deals with T1, PE-labeled human PD-L1-Ig binding to Jurkat cell line over-expressing human PD-1 (Jurkat-PD-1) (Homo sapiens, UniProt Q15116).
T1 construct: expressed in transfected cells; host or cells: Jurkat
T1 sequence (Q15116 25-288): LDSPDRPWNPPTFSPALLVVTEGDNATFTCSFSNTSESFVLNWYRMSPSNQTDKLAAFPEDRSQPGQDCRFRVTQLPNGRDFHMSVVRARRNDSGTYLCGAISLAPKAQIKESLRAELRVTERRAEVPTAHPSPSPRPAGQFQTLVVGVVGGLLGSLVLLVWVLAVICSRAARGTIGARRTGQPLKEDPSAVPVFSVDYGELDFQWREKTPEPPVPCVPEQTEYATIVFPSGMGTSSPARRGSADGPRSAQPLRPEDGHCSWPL
The experiment can be described thus: Jurkat-PD-1 Cell Binding High-Content Screening Assay (CBA): Method 1. Particulars: Jurkat-hPD-1 cells, PE-labeled PD-L1-Ig 20 nM final; read-out: Jurkat HPDL1 PD1 IC50 (uM) (Method 1).
The IC50 is the concentration that inhibits the measured activity by half. Turning to `C#CC[C@H](NC(=O)CNC(=O)[C@@H]1CSCC(=O)N[C@@H]([C@@H](C)O)C(=O)N[C@@H](Cc2ccc(OCC(=O)O)cc2)C(=O)N[C@@H](CC(=O)O)C(=O)N[C@@H](Cc2cccc(C)c2)C(=O)N[C@@H](Cc2ccc(OCC(=O)O)cc2)C(=O)N[C@@H](Cc2ccc(-c3ccccc3)cc2)C(=O)N[C@@H](Cc2ccc(OCC(=O)O)cc2)C(=O)N(C)[C@@H](C)C(=O)N[C@H](CC(C)C)C(=O)N[C@@H](CCN)C(=O)N[C@@H](CC2CCCCC2)C(=O)N[C@@H](C(C)(C)O)C(=O)N[C@@H](CCC(=O)O)C(=O)N1)C(N)=O` [Compound 1939] ({CH2CO}-TY(Carboxymethyl)D[Phe(3-Me)]Y(Carboxymethyl)[Bip]Y(Carboxymethyl)[NMeA][dL][Dab][Cha][Val(3-OH)]ECG[Pra]-NH2; thioether N-14), the IC50 was found to be 0.11 µM.
For the molecule `Cc1cccc(C[C@@H]2NC(=O)[C@H](CC(=O)O)NC(=O)[C@H](Cc3ccc(OCC(=O)O)cc3)NC(=O)[C@H]([C@@H](C)O)NC(=O)CSC[C@@H](C(N)=O)NC(=O)[C@H](CCCN)NC(=O)[C@H](C(C)C)NC(=O)[C@H](CC3CCCCC3)NC(=O)[C@H](CCN)NC(=O)[C@@H](CC(C)C)NC(=O)[C@H](C)N(C)C(=O)[C@H](Cc3ccc(OCC(=O)O)cc3)NC(=O)[C@H](Cc3ccc(-c4ccccc4)cc3)NC(=O)[C@H](Cc3ccc(OCC(=O)O)cc3)NC2=O)c1` [Compound 1674] ({CH2CO}-TY(Carboxymethyl)D[Phe(3-Me)]Y(Carboxymethyl)[Bip]Y(Carboxymethyl)[NMeA][dL][Dab][Cha]V[Orn]C-NH2; thioether N-14), the IC50 turned out to be 0.07 µM.
For `CC(C)C[C@@H]1NC(=O)[C@H](Cc2c[nH]c3ccccc23)NC(=O)[C@H](CC(=O)O)NC(=O)[C@H](Cc2ccc(C(=O)O)cc2)NC(=O)[C@H](Cc2cccnc2)NC(=O)CSC[C@@H](C(=O)N[C@@H](C)C(N)=O)NC(=O)[C@H](CO)NC(=O)[C@H](C(C)C)NC(=O)[C@H](CC(C)C)NC(=O)[C@H](CC(N)=O)NC(=O)[C@@H](C)NC(=O)[C@H](C)N(C)C(=O)[C@H](C(C)C)NC(=O)[C@H](Cc2ccc(-c3ccccc3)cc2)NC1=O` [Compound 1747] ({CH2CO}-[3Pal][Phe(4-COOH)]DWL[Bip]V[NMeA][dA]NLVSCA-NH2; thioether N-14), the 50% inhibitory concentration (IC50) was 0.02 µM.
`CC(C)C[C@@H]1NC(=O)[C@H](CCN)NC(=O)[C@@H](CC(C)C)NC(=O)[C@H](C)N(C)C(=O)[C@H](CCCNC(=N)N)NC(=O)[C@H](Cc2ccc(-c3ccccc3)cc2)NC(=O)[C@H](C(C)C)NC(=O)[C@H](Cc2c[nH]c3ccccc23)NC(=O)[C@H](CC(=O)O)NC(=O)[C@H](Cc2ccccc2F)NC(=O)[C@H](CN)NC(=O)CSC[C@@H](C(=O)N[C@@H](C)C(N)=O)NC(=O)[C@H]([C@@H](C)O)NC(=O)[C@H](C(C)C)NC1=O` [Compound 1454] ({CH2CO}-[Dap][Phe(2-F)]DWV[Bip]R[NMeA][dL][Dab]LVTCA-NH2; thioether N-14): the IC50 is 0.02 µM.
For the molecule `CC(C)C[C@@H]1NC(=O)[C@H](CCN)NC(=O)[C@@H](CC(C)C)NC(=O)[C@H](C)N(C)C(=O)[C@H](Cc2cnc[nH]2)NC(=O)[C@H](Cc2ccc(-c3ccccc3)cc2)NC(=O)[C@H](C(C)C)NC(=O)[C@H](Cc2c[nH]c3ccccc23)NC(=O)[C@H](CC(=O)O)NC(=O)[C@H](Cc2ccc(C(=O)O)cc2)NC(=O)[C@H](CC(N)=O)NC(=O)CSC[C@@H](C(=O)N[C@@H](C)C(N)=O)NC(=O)[C@H]([C@@H](C)O)NC(=O)[C@H](C(C)C)NC1=O` [Compound 1383] ({CH2CO}-N[Phe(4-COOH)]DWV[Bip]H[NMeA][dL][Dab]LVTCA-NH2; thioether N-14), the IC50 was found to be 0.06 µM.
`CC[C@H](C)[C@@H]1NC(=O)[C@H](Cc2ccc(-c3ccccc3)cc2)NC(=O)[C@H](C(C)C)NC(=O)[C@H](Cc2c[nH]c3ccccc23)NC(=O)[C@H](CC(=O)O)NC(=O)[C@H](Cc2ccc(O)cc2)NC(=O)[C@H](CN)NC(=O)CSC[C@@H](C(=O)N[C@@H](C)C(N)=O)NC(=O)[C@H]([C@@H](C)O)NC(=O)[C@H](C(C)C)NC(=O)[C@H](CC2CCCCC2)NC(=O)[C@H](CCCNC(=N)N)NC(=O)[C@@H](CC(C)C)NC(=O)[C@H](C)N(C)C1=O` [Compound 1492] ({CH2CO}-[Dap]YDWV[Bip]I[NMeA][dL]R[Cha]VTCA-NH2; thioether N-14): the IC50 was determined as 0.04 µM.
In the case of `CC(C)C[C@@H]1NC(=O)[C@H](CCCNC(=N)N)NC(=O)[C@@H](C)NC(=O)[C@H](C)N(C)C(=O)[C@H](C(C)C)NC(=O)[C@H](Cc2ccc(-c3ccccc3)cc2)NC(=O)[C@H](C(C)C)NC(=O)[C@H](Cc2c[nH]c3ccccc23)NC(=O)[C@H](CC(=O)O)NC(=O)[C@H](Cc2ccc(O)cc2)NC(=O)[C@H](Cc2ccccc2)NC(=O)CSC[C@@H](C(=O)N[C@@H](C)C(N)=O)NC(=O)[C@H](CO)NC(=O)[C@H](C(C)C)NC1=O` [Compound 1779] ({CH2CO}-FYDWV[Bip]V[NMeA][dA]RLVSCA-NH2; thioether N-14), the half-inhibitory concentration (IC50) amounted to 0.07 µM.
Then `Cc1cccc(C[C@@H]2NC(=O)[C@H](CC(=O)O)NC(=O)[C@H](Cc3ccc(OCC(=O)O)cc3)NC(=O)[C@H](CN)NC(=O)CSC[C@@H](C(N)=O)NC(=O)[C@H](CCCN)NC(=O)[C@H](C(C)C)NC(=O)[C@H](CC3CCCCC3)NC(=O)[C@H](CCN)NC(=O)[C@@H](CC(C)C)NC(=O)[C@@H]3CCCCN3C(=O)[C@H](Cc3ccc(OCC(=O)O)cc3)NC(=O)[C@H](Cc3ccc(-c4ccccc4)cc3)NC(=O)[C@H](Cc3ccc(OCC(=O)O)cc3)NC2=O)c1` [Compound 1890] ({CH2CO}-[Dap]Y(Carboxymethyl)D[Phe(3-Me)]Y(Carboxymethyl)[Bip]Y(Carboxymethyl)[Pip][dL][Dab][Cha]V[Orn]C-NH2; thioether N-14), with 0.15 µM; and `CC[C@H](C)[C@@H]1NC(=O)[C@H](Cc2ccc(-c3ccccc3)cc2)NC(=O)[C@H](C(C)C)NC(=O)[C@H](Cc2c[nH]c3ccccc23)NC(=O)[C@H](CC(=O)O)NC(=O)[C@H](Cc2ccc(O)cc2)NC(=O)[C@H](CC(N)=O)NC(=O)CSC[C@@H](C(=O)N[C@@H](C)C(N)=O)NC(=O)[C@H]([C@@H](C)O)NC(=O)[C@H](C(C)C)NC(=O)[C@H](CC2CCCCC2)NC(=O)[C@H](CCCNC(=N)N)NC(=O)[C@@H](CC(C)C)NC(=O)[C@H](C)N(C)C1=O` [Compound 1495] ({CH2CO}-NYDWV[Bip]I[NMeA][dL]R[Cha]VTCA-NH2; thioether N-14), with 0.04 µM.
For the molecule `CC(C)C[C@@H]1NC(=O)[C@H](CCN)NC(=O)[C@@H](CC(C)C)NC(=O)[C@H](C)N(C)C(=O)[C@H](CCCN)NC(=O)[C@H](Cc2ccc(-c3ccccc3)cc2)NC(=O)[C@H](C(C)C)NC(=O)[C@H](Cc2c[nH]c3ccccc23)NC(=O)[C@H](CC(=O)O)NC(=O)[C@H](Cc2ccc(O)cc2)NC(=O)[C@H](CCC(N)=O)NC(=O)CSC[C@@H](C(=O)N[C@@H](C)C(N)=O)NC(=O)[C@H]([C@@H](C)O)NC(=O)[C@H](C(C)C)NC1=O` [Compound 1363] ({CH2CO}-QYDWV[Bip][Orn][NMeA][dL][Dab]LVTCA-NH2; thioether N-14), the IC50 worked out at 0.11 µM.
The result for `CC(C)C[C@H]1NC(=O)[C@H](C)N(C)C(=O)[C@H](CCCN)NC(=O)[C@H](Cc2ccc(-c3ccccc3)cc2)NC(=O)[C@H](C(C)C)NC(=O)[C@H](Cc2c[nH]c3ccccc23)NC(=O)[C@H](CC(=O)O)NC(=O)[C@H](Cc2ccc(O)cc2)NC(=O)[C@H](CC(N)=O)NC(=O)CSC[C@@H](C(=O)N[C@@H](C)C(N)=O)NC(=O)[C@H]([C@@H](C)O)NC(=O)[C@H](C(C)C)NC(=O)[C@H](CC2CCCCC2)NC(=O)[C@H](CCN)NC1=O` [Compound 1278] ({CH2CO}-NYDWV[Bip][Orn][NMeA][dL][Dab][Cha]VTCA-NH2; thioether N-14) reads 0.01 µM; that for `CC(C)C[C@@H]1NC(=O)[C@H](CCN)NC(=O)[C@@H](CC(C)C)NC(=O)[C@H](C)N(C)C(=O)[C@H](CCCNC(N)=O)NC(=O)[C@H](Cc2ccc(-c3ccccc3)cc2)NC(=O)[C@H](C(C)C)NC(=O)[C@H](Cc2c[nH]c3ccccc23)NC(=O)[C@H](CC(=O)O)NC(=O)[C@H](Cc2cccnc2)NC(=O)[C@H](CC(N)=O)NC(=O)CSC[C@@H](C(=O)N[C@@H](C)C(N)=O)NC(=O)[C@H]([C@@H](C)O)NC(=O)[C@H](C(C)C)NC1=O` [Compound 1318] ({CH2CO}-N[3Pal]DWV[Bip][Cit][NMeA][dL][Dab]LVTCA-NH2; thioether N-14), 0.02 µM.
Then `CCOc1cccc(-c2ccc(C[C@@H]3NC(=O)[C@H](C(C)C)NC(=O)[C@H](Cc4c[nH]c5ccccc45)NC(=O)[C@H](CC(=O)O)NC(=O)[C@H](Cc4ccc(O)cc4)NC(=O)[C@H](CC(N)=O)NC(=O)CSC[C@@H](C(=O)N[C@@H](C)C(N)=O)NC(=O)[C@H]([C@@H](C)O)NC(=O)[C@H](C(C)C)NC(=O)[C@H](CC(C)C)NC(=O)[C@H](CCN)NC(=O)[C@@H](CC(C)C)NC(=O)[C@H](C)N(C)C(=O)[C@H](CCCNC(=N)N)NC3=O)cc2)c1` [Compound 1221] ({CH2CO}-NYDWV[X30]R[NMeA][dL][Dab]LVTCA-NH2; thioether N-14), with 0.22 µM; and `CC(C)C[C@@H]1NC(=O)[C@H](CCN)NC(=O)[C@@H](CC(C)C)NC(=O)[C@H](C)N(C)C(=O)[C@H](CCC(=O)O)NC(=O)[C@H](Cc2ccc(-c3ccccc3)cc2)NC(=O)[C@H](C(C)C)NC(=O)[C@H](Cc2c[nH]c3ccccc23)NC(=O)[C@H](CC(=O)O)NC(=O)[C@H](Cc2ccc(O)cc2)NC(=O)[C@H](CC(N)=O)NC(=O)CSC[C@@H](C(=O)N[C@@H](C)C(N)=O)NC(=O)[C@H](CO)NC(=O)[C@H](C(C)C)NC1=O` [Compound 1248] ({CH2CO}-NYDWV[Bip]E[NMeA][dL][Dab]LVSCA-NH2; thioether N-14), with 0.07 µM.
On to `CC(C)C[C@@H]1NC(=O)[C@H](CCN)NC(=O)[C@@H](CC(C)C)NC(=O)[C@H](C)N(C)C(=O)[C@H](CCCNC(N)=O)NC(=O)[C@H](Cc2ccc(-c3ccccc3)cc2)NC(=O)[C@H](C(C)C)NC(=O)[C@H](Cc2c[nH]c3ccccc23)NC(=O)[C@H](CC(=O)O)NC(=O)[C@H](Cc2ccc(C(=O)O)cc2)NC(=O)[C@H](Cc2ccccn2)NC(=O)CSC[C@@H](C(=O)N[C@@H](C)C(N)=O)NC(=O)[C@H]([C@@H](C)O)NC(=O)[C@H](C(C)C)NC1=O` [Compound 1330] ({CH2CO}-[2Pal][Phe(4-COOH)]DWV[Bip][Cit][NMeA][dL][Dab]LVTCA-NH2; thioether N-14), for which the IC50 came out at 0.04 µM.

The values above are taken from patent US20240409585A1, “MACROCYCLIC IMMUNOMODULATORS” (priority 2021, published 2024).
